Consider 1 compound from BindingDB's records for doi:10.1021/jm0003945 (Vrije Universiteit, 2001).

The experiment deals with T1, Adenosine receptor A2b (Homo sapiens, UniProt P29275).
T1 sequence (P29275 whole entry): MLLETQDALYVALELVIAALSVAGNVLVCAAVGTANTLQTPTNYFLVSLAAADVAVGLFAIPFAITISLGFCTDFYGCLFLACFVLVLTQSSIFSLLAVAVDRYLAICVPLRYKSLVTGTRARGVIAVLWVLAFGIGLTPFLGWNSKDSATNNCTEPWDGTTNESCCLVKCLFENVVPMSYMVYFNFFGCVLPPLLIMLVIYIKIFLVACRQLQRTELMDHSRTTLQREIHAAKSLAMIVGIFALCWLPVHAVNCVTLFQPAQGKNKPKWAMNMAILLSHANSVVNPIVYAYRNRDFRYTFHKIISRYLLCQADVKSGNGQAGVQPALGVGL
The experiment in a line: Percent displacement of [3H]DPCPX binding in human adenosine A2B receptor expressed in COS-7 cells.

Molecules are shown by their SMILES.

`COc1ccccc1NC(=O)Nc1nc(-c2cccnc2)nc2ccccc12` [VUF-5574] gave an inhibition constant Ki of 10 µM.

In general, Ki refers to the equilibrium dissociation constant of an inhibitor or competing ligand from its target. The low end stands for a stronger hold on the target, the high end for a looser hold on the target.
